Test results: patent US7611691B2, “Compounds for treatment of copper overload” (The Curators of the University of Missouri, priority 2002, dated 2009)

How the values were obtained:
[1] = Reduction of copper levels in swine after oral Cu loading; assay type: in vivo; settings: 15 mg/kg twice daily for three days
Method: Eight weanling pigs weighing 10-12 kg were randomly assigned to one of three groups, receiving no thpalanine (N=2), thpalanine via gavage (N=3) or thpalanine intravenously (N=3). All eight pigs underwent 21 consecutive days of oral Cu loading with 10 mg of Cu from copper sulfate per kg of body weight twice daily. Loading was determined by protocol in Mineral Tolerance of Domestic Animals. Pigs also received 10 mg/kg body weight of Cu in their diet. After 21 days dosing with copper sulfate was discontinued. Thpalanine was given to the two drug-treated groups beginning two days following the end of Cu loading. Each of the thpalanine treatment groups (oral and intravenous) received 15 mg thpalanine per kg body weight twice daily for three consecutive days. Four 24 hour urine collections were done to determine urinary Cu excretion beginning 24 hours prior to thpalanine treatment.
Following day 3 of treatment, the pigs were euthanized and a sample of liver/kidney were collected and stored at −10° F. until copper analyses. Statistical analysis was performed using ANOVA. Multiple pairwise comparisons were made using the Tukey test and statistical significance was set at P<0.05.

[2] = Stability of THPAL in bovine serum albumin (BSA) solution by 31P NMR; assay type: physicochemical
Method: 50 mg of BSA (3.3%) was dissolved in 1.5 ml of water. 30 mg of THPAL (0.06 M) was added to this to obtain a clear solution. The measurements of stable (or unoxidized) forms of THPAL in BSA were performed using ^31P NMR spectroscopy. The ^31P NMR resonance of THPAL is very sensitive to alterations on the back bone structure. The temperature of the mixture of THPAL and BSA in water was maintained at 9-12° C.
There was no detectable change in the ^31P NMR resonance until 12-15 hours after mixing the THPAL and BSA. After 24 hours, about 20% THPAL was transferred to uncharacterized compound.

[3] = Attempted oxidation of THPAL with molecular oxygen; assay type: physicochemical; settings: aerated water, refluxed for several hours under air
Method: THPAL (0.5 g, […]) was dissolved in aerated water (25 ml).

[4] = Oxidation of THPAL using gaseous hydrogen peroxide; assay type: physicochemical; settings: aqueous solution exposed to hydrogen peroxide vapors; after two days
[5] = Oxidation of THPAL by 35% aqueous H2O2; assay type: physicochemical
Method: Hydrogen peroxide (0.2 ml, 35%, […]) was added dropwise to a solution of THPAL (0.5 g, 0.014 mmol) in water at room temperature. The reaction mixture was stirred at room temperature for one hour. The solvent was then removed under reduced pressure. The crude product was washed with methanol (5×4 ml), and then characterized as pure O═P(CH2NHCH(CH3)—COOH)3 by NMR spectroscopy. ^31P{^1H} NMR (D2O): 37.07 (s); ^1H NMR (D2O): 1.60 (d, CH3, 9H), 3.96-3.89 (m. CH2 and CH, 9H); ^13C NMR (D2O): 42.9 (d, P—CH2, JC-P=70.05 Hz), 59.6 (d, NH—CH, ^2JC-P=8.25 Hz), 15.59 (s, CH3), 175.15 (s, COOH).

[6] = Oxygen radical absorbance capacity (ORAC hydro FL); settings: Fluorescein probe; Trolox calibration standard
Source text: (§1) The NORAC value of 18.8 μmolTE/g found for TBPAL (Table 1) is among the highest ever reported for antioxidant drugs.
Trolox, a water-soluble Vitamin E analog, was used as the calibration standard and the ORAC result is expressed as micromole Trolox equivalent (TE) per gram.

[7] = Hydroxyl radical absorbance capacity (HORAC); settings: Gallic Acid calibration standard
Source text: as §1
^+Gallic Acid was used as the calibration standard and the HORAC result is expressed as mg Gallic Acid equivalent (GAE) per gram.

[8] = Nitricoxide radical absorbance capacity (NORAC)
Source text: as §1
^Trolox was used as the calibration standard and the NORAC result is expressed as μmole Trolox equivalent (TE) per gram.

## CC(NCP(CNC(C)C(=O)O)CNC(C)C(=O)O)C(=O)O (centres unmarked) [THPAL, 2-[({Bis-[(1-carboxy-ethylamino)-methyl]-phosphanyl}-methyl)-amino]-propionic acid]
[1]; Cu-loaded weanling pigs, intravenous
  copper levels in swine kidneys: significantly reduced
[1]; pigs, oral or intravenous
  adverse effects (clinical observations, rate of gain, gross necropsy): no adverse effects
[2]; 3.3% BSA in water, 0.06 M THPAL, 9-12° C.
  time with no detectable change in the 31P NMR resonance after mixing THPAL and BSA: 12 to 15 h
[2]; BSA solution, after 24 hours, 9-12° C.
  THPAL transferred to uncharacterized compound: about 20%
[2]; after 72 hours
  oxidation state of THPAL in BSA solution (31P NMR): remained unoxidized
[2]; after five days
  oxidative stability of THPAL in BSA solution (31P NMR): no oxidation
[2]; overall conclusion
  stability in BSA solutions: stable
[3]
  oxidation or decomposition by 31P NMR: did not show any oxidation or detectable decomposition
[4]
  conversion to O═P(CH2NHCH(CH3)COOH)3: Complete conversion
[5]
  oxidation of THPAL to the corresponding oxide by oxygen radicals generated by peroxide: complete oxidation
[6]
  ORAChydroFL: 31 μmoleTE/g
[7]
  HORAC: Not Detectable
[8]
  NORAC value: 18.8 μmolTE/g
[8]; Trolox calibration standard
  NORAC: 18.81 μmoleTE/g
